Source: publication PMC7916174, “Preliminary Study of a 1,5-Benzodiazepine-Derivative Labelled with Indium-111 for CCK-2 Receptor Targeting” (Molecules, 2021)

Legend:
[1] = Stability of the radiotracer in NaCl 0.9%, HEPES and EDTA (radio-TLC / RP-HPLC); assay type: physicochemical
Description: (§1) HPLC analyses on indium-111-labelled IP-001 were performed on an S1125 HPLC pump system, and the column used was an Acclaim 120 C18, 3 × 150 mm, 3 µm 120 Å pore size; flow: 0.6 mL/min; gradient: minutes 0–2 A: 70% B: 30%; minutes 2–12 B: 30% -> 95%; and minutes 12–15 B: 95% -> 30%, where A: H2O (0.1% TFA) and B: MeCN. Detection was carried out with an S3245 UV–Vis and an S3700 gamma detector system.
(§2) TLC plates used for the assessment of the preparative reactions were silica gel 60 […] (0.2 mm, Merck) with the eluents mentioned for the specific product in the following paragraphs. Column chromatography was carried out with silica gel 60 (0.063–0.100 mm, Merck), and elution was performed using the eluent described for the specific preparations. The radioactive incorporation and stability of [^111In]In-IP-001 were assessed on ITLC-SG plates, developed in a 1 M ammonium acetate/MeOH 1:1 v/v solution, by using a flatbed-imaging scanner (Cyclone, Perkin Elmer).
(§3) The stability of [^111In]In-IP-001 solutions (0.5 mL, 10 nmol, 18 MBq) was assessed by means of radio-TLC or RP-HPLC at various temperatures (4, 24, and 37 °C) and in the presence of different media up to 120 h after preparation. The studies were performed by incubating the radiotracer with (i) a 0.9% NaCl solution at a 9:1 ratio, (ii) a 0.1 M HEPES solution at a 9:1 ratio, (iii) a 0.1 M EDTA solution at 9:1 and 1:1 ratios, (iv) human serum (HS) at a 9:1 ratio, and (v) HB at a 1:1 ratio. After TLC analysis, samples incubated with HB were centrifuged at 3000 rpm for 10 min to precipitate blood cells, and 200 μL of a MeCN/H2O/TFA 50/45/5 v/v/v solution was added to 400 μL of the supernatant. After another centrifugation under the same conditions, the supernatant was discarded and the residual radioactivity due to the proteins bound fraction was measured in a dose calibrator. Lipophilicity calculation were performed in octanol–water with the shaking flask method, as already described elsewhere. All experiments were performed in triplicate.

[2] = Stability of the radiotracer in human serum; assay type: in vitro ADME; details: for Stability (%), amount of intact radiotracer: Human serum
Description: as §1, §2, §3

[3] = Stability of the radiotracer in human blood; assay type: in vitro ADME; details: for Stability (%), amount of intact radiotracer: Human blood
Description: as §1, §2, §3

[4] = Lipophilicity, octanol-water shaking flask method; assay type: physicochemical
Description: as §3

A549 cells = assay: [111In]In-IP-001 cellular uptake; assay type: cell-based, human
Description: A549 epithelial lung cancer cells were seeded in 6-well plates (20,000/cm^2) and allowed to adhere overnight. The following day, the medium was removed and radiotracer uptake was studied by incubating 2 × 10^5 cells at 37 °C in 2 mL of culture medium added to 30 µL (ca. 2 MBq, 1.35 μg, 1 nmol) of [^111In]In-IP-001. Uptake was monitored at 2, 4, 8, and 24 h. At these time points, the medium was removed and cells were washed twice with 2 mL of ice-cold PBS. Finally, cells were detached with 2 mL of a 0.25% trypsin/EDTA solution at 37 °C and centrifuged to separate the supernatant from the cells pellet. The radioactivity associated with the pellets was measured in a γ-spectrometer and corrected for decay. All experiments were performed in triplicate.

A549 xenograft tumors [5] = assay: Ex vivo biodistribution in A549 tumor-bearing mice; set-up: species or system BALB/c nude mice
Description: (§4) Homozygous female BALB/c nude J:NU (JAX stock number 007850) mice were purchased from Jackson Laboratories (Bar Harbor, ME, USA). Mice were 4 weeks old at arrival, and they were hosted in an IVC system (Smart Flow AHU, Tecniplast) with autoclaved rodent bedding hosting 3–4 mice per cage. Mice were fed with autoclaved rodent food and water ad libitum. The inoculation of A549 tumor cell line was performed by the subcutaneous injection of 5 × 10^6 cells/mouse in 100 uL of […] medium (RPMI added of 10% FBS, 1% penicillin-streptomycin, 1% glutamine) into the right shoulder. […] Inoculation was carried out at 5 weeks of age after one week in the facility for acclimatization purposes. Mice were monitored every 2–3 days by measuring weight and tumor dimensions with an electronic caliper. For this purpose, two perpendicular dimensions were noted and volumes of the tumors were calculated with the formula 0.5 × L × W^2, where L is the measurement of the longest axis and W is the measurement of the axis perpendicular to L, in millimeters.
Tumors were allowed to grow for about five weeks until they reached 0.5–1.0 cm of size in one dimension (i.e., around 50–250 mm^3 volume), and then mice were divided in two groups. The experimental group (n = 5) was intravenously injected (retro-orbital venous sinus) with 150 μL of a [^111]In-IP-001 solution (2.06 nmol, 7.4MBq), while the blocked group (n = 5) was injected with 150 μL of a [^111]In-IP-001 solution added to a 50-fold molar excess of cold ligand. All injections were performed with the animals under isoflurane anesthesia (1–3%), using 30G ultra-fine insulin syringes. Real-time, live, and fast dynamic screening studies were performed right after injection and on selected time points post-injection, on a dedicated desktop, mouse-sized, planar scintigraphic system (γ-eye^TM by BIOEMTECH, Athens, Greece). The system supports fusion with a digital mouse photograph for anatomical co-registration. The main detector is based on two position-sensitive photomultiplier tubes coupled to a CsI(Na) pixelated scintillator and a medium-energy lead collimator with parallel hexagonal holes that supports a range of SPECT isotopes. The system’s field of view is 5 × 10 cm^2, with a spatial resolution of ~2 mm. […] This allowed for a fast test, right after injection, to check whether the injection was successful, and on later time points to quickly evaluate the bio-kinetics of the tracer. Tomographic SPECT/CT imaging was performed with y-CUBE^TM and x-CUBE^TM (Molecubes, Belgium), respectively, at the same selected time points post-injection. The SPECT system provides a spatial resolution of 0.6 mm for mouse imaging and of 1.5 mm for rat imaging. The CT system performs a spiral scan, it can provide images with 100 um resolution, and images were acquired with 50 kVp. Mouse imaging was performed by keeping the mice anaesthetized under isoflurane and under a constant temperature of 37 °C. SPECT scans were acquired with a 45 min duration, and each SPECT scan was followed by a high-resolution CT scan for co-registration purposes. The SPECT data were reconstructed through a maximum-likelihood expectation-maximization (MLEM) algorithm, with a 500 μm voxel size and […]. CT data were reconstructed through an iterative image space reconstruction algorithm (ISRA) algorithm with a 100 μm voxel size. Tomographic images are presented through maximum intensity projection (MIP) view). The experimental group was imaged at 2, 4, 8, and 24 h post-injection with both imaging systems, while the blocked group was imaged at 4 and 24 h.
(§5) For biodistribution studies, the injections were performed as described above, and 3 mice for both groups were sacrificed at 4 and 24 h post injection using 2% isoflurane. Main organs and tissues were removed, weighed, and counted together with blood samples, muscle, and urine by a γ-counter system (Cobra II from Packard, Canberra, ME, USA). […]

A549 xenograft tumors [6] = assay: Blocking experiment with 50-fold molar excess of unlabeled IP-001, ex vivo biodistribution; assay type: in vivo, BALB/c nude mice
Description: as §4
Tumors were allowed to grow for about five weeks until they reached 0.5–1.0 cm of size in one dimension (i.e., around 50–250 mm^3 volume), and then mice were divided in two groups. The experimental group (n = 5) was intravenously injected (retro-orbital venous sinus) with 150 μL of a [^111]In-IP-001 solution (2.06 nmol, 7.4MBq), while the blocked group (n = 5) was injected with 150 μL of a [^111]In-IP-001 solution added to a 50-fold molar excess of cold ligand. All injections were performed with the animals under isoflurane anesthesia (1–3%), using 30G ultra-fine insulin syringes. […]
as §5

CCK-2R = test system: CCK-2R; set-up: method as in PMID 24325469; details: cited from earlier work

CC(C)(C)C(=O)CN1C(=O)C(NC(=O)Nc2cccc(C(=O)NCCCCCCNC(=O)CCC(=O)NCCCOCCOCCOCCCNC(=O)CN3CCN(CC(=O)[O-])CCN(CC(=O)[O-])CCN(CC(=O)[O-])CC3)c2)CN(C2CCCCC2)c2ccccc21.[111In+3] (stereo not shown) [[^111In]In-IP-001]
Stability (%), amount of intact radiotracer ([1]; EDTA (0.1 M), 4 h): 98 ± 1%
Stability (%), amount of intact radiotracer ([1]; EDTA (0.1 M), 8 h): 98 ± 1%
Stability (%), amount of intact radiotracer ([1]; EDTA (0.1 M), 24 h): 96 ± 2%
Stability (%), amount of intact radiotracer ([1]; EDTA (0.1 M), 72 h): 96 ± 3%
Stability (%), amount of intact radiotracer ([1]; HEPES (0.1 M), 4 h): 98 ± 2%
Stability (%), amount of intact radiotracer ([1]; HEPES (0.1 M), 8 h): 97 ± 3%
Stability (%), amount of intact radiotracer ([1]; HEPES (0.1 M), 24 h): 97 ± 3%
Stability (%), amount of intact radiotracer ([1]; HEPES (0.1 M), 72 h): 96 ± 1%
Stability (%), amount of intact radiotracer ([1]; NaCl 0.9%, 4 h): 98 ± 2%
Stability (%), amount of intact radiotracer ([1]; NaCl 0.9%, 8 h): 98 ± 2%
Stability (%), amount of intact radiotracer ([1]; NaCl 0.9%, 24 h): 97 ± 2%
Stability (%), amount of intact radiotracer ([1]; NaCl 0.9%, 72 h): 97 ± 2%
Stability (%), amount of intact radiotracer ([2]; 4 h): 98 ± 2%
Stability (%), amount of intact radiotracer ([2]; 8 h): 96 ± 3%
Stability (%), amount of intact radiotracer ([2]; 24 h): 95 ± 3%
Stability (%), amount of intact radiotracer ([2]; 72 h): 94 ± 2%
Stability (%), amount of intact radiotracer ([2]; 120 h): 93 ± 1%
percentage of intact compound ([2]; human serum, after 48 h): higher than 95%
Stability (%), amount of intact radiotracer ([3]; 4 h): 98 ± 2%
Stability (%), amount of intact radiotracer ([3]; 8 h): 95 ± 1%
Stability (%), amount of intact radiotracer ([3]; 24 h): 95 ± 2%
Stability (%), amount of intact radiotracer ([3]; 72 h): 93 ± 1%
Stability (%), amount of intact radiotracer ([3]; 120 h): 93 ± 2%
percentage of intact compound ([3]; human blood (HB), after 48 h): higher than 95%
partition coefficient (LogP) [4]: 0.45
maximal accumulation (percent of the added radioactivity per million cells) (A549 cells; 2 MBq, 4 h of incubation): around 5%
incubation time of maximal accumulation (A549 cells; incubation up to 24 h): 4 h
spleen uptake (A549 xenograft tumors [5]; 4 h post injection (abstract)): 3.88 ± 0.36 % ID/cc
tumor uptake (A549 xenograft tumors [5]; 4 h post injection, i.v., n = 3): 2.36 ± 0.26 % IA/g
blood uptake (A549 xenograft tumors [5]; 4 h post injection, n = 3): 4.21 ± 0.40 % IA/g
intestines uptake (A549 xenograft tumors [5]; 4 h post injection, n = 3): 2.39 ± 0.28 % IA/g
kidneys uptake (A549 xenograft tumors [5]; 4 h post injection, n = 3): 6.99 ± 0.97 % IA/g
liver uptake (A549 xenograft tumors [5]; 4 h post injection, n = 3): 8.25 ± 2.21 % IA/g
lungs uptake (A549 xenograft tumors [5]; 4 h post injection, n = 3): 2.82 ± 0.21 % IA/g
pancreas uptake (A549 xenograft tumors [5]; 4 h post injection, n = 3): 2.03 ± 0.16 % IA/g
spleen uptake (A549 xenograft tumors [5]; 4 h post injection, n = 3): 3.88± 0.36 % IA/g
intestines uptake (A549 xenograft tumors [5]; 24 h post injection): 0.55 ± 0.29 % IA/g
kidneys uptake (A549 xenograft tumors [5]; 24 h post injection): 3.11 ± 0.52 % IA/g
liver uptake (A549 xenograft tumors [5]; 24 h post injection): 3.55 ± 1.17 % IA/g
pancreas uptake (A549 xenograft tumors [5]; 24 h post injection): 0.26 ± 0.04 % IA/g
tumor to blood (T/B) ratio (A549 xenograft tumors [5]; 24 h post injection): 10.19
tumor to kidneys ratio (A549 xenograft tumors [5]; 24 h post injection): 0.48
tumor to liver ratio (A549 xenograft tumors [5]; 24 h post injection): 0.47
tumor to muscle (T/M) ratio (A549 xenograft tumors [5]; 24 h post injection): 15.72
tumor/intestines ratio (A549 xenograft tumors [5]; 24 h post injection): 2.76
tumor/lungs ratio (A549 xenograft tumors [5]; 24 h post injection): 2.02
tumor/pancreas ratio (A549 xenograft tumors [5]; 24 h post injection): 5.85
tumor uptake (A549 xenograft tumors [5]; 24 h post injection, n = 3): 1.52 ± 0.71 % IA/g
accumulated radiotracer still retained in tumor tissue (A549 xenograft tumors [5]; 24 h post-injection relative to 4 h): 65%
decrease of the signal over 24 h (A549 xenograft tumors [5]; intestines, lungs, and pancreas, from 4 h to 24 h): more than 73%
difference in radioactivity in organs and tumors between normal and blocked groups (A549 xenograft tumors [6]; 4 h post injection): no significant differences
tumor uptake, blocked group (A549 xenograft tumors [6]; 24 h post injection, with 50-fold molar excess of unlabeled IP-001, n = 3): 0.84 ± 0.33 % IA/g
lower uptake in the tumor tissue in the blocking setting (A549 xenograft tumors [6]; blocked versus experimental group, 24 h): 45%

CC(C)(C)C(=O)CN1C(=O)[C@H](NC(=O)Nc2cccc(C(=O)O)c2)CN(C2CCCCC2)c2ccccc21 [Z-360, Nastorazepide]
selectivity relative to CCK-1R (CCK-2R; CCK-2R versus CCK-1R): 672
Kd (CCK-2R; CCK-2R): 0.47 nM
